Data set [1] concerns the target T1, chxEH (Gallus gallus, UniProt Q45QT1). The experiment in a line: FRET-based competitive displacement assay with reporter ligand ACPU.
Another data set concerns the target chicken sEH (chxEH) (Gallus gallus, UniProt Q45QT1). Nature of the data set: chxEH inhibition, fluorescent substrate PHOME. It is filed as biochemical.
For data set [2], the target named is T1, chxEH. Nature of the data set: kinetic constants of chxEH for epoxy-fatty acid substrate. It is filed as biochemical, chicken. The following applies: chxEH's best substrate.
A short description of data set [3]: solubility by turbidity measurement at 600 nm. The following applies: sodium phosphate buffer, pH 7.4. It is filed as physicochemical.
Setting [4] is: substrate of recombinant purified chicken sEH.

≈ marks a conversion by molar mass, not a printed value.

Consider `O=C(NC1CCN(C(=O)Cc2cc(=O)oc3cc(O)ccc23)CC1)NC12CC3CC(CC(C3)C1)C2` [ACPU], for which the equilibrium dissociation constant (Kd) at chxEH [1] came out at 0.283 nM. This lies in the sub-nanomolar range. Turning to `COc1ccc2cc(C(C#N)OC(=O)CC3OC3c3ccccc3)ccc2c1` (centres unmarked) [PHOME, (3-phenyl-oxiranyl)-acetic acid cyano-(6-methoxy-naphthalen-2-yl)-methyl ester], on chicken sEH (chxEH) (setting [4]), the Km is 1.5 ± 0.3 µM and the maximum rate (Vmax) was found to be 60 ± 4 nmol/min/mg. `CCC(=O)N1CCC(NC(=O)Nc2ccc(OC(F)(F)F)cc2)CC1` [TPPU]: the “inhibition of chxEH” value against chicken sEH (chxEH) (inhibitor 100 nM, chxEH 1.4 nM, primary screen, endpoint mode) was 15%. Consider `CCC=CCC1OC1CC=CCC=CCC=CCC=CCCC(=O)O` (centres unmarked) [16,17-epoxy-docosapentaenoic acid], for which, at chxEH [2], the Michaelis-Menten constant (Km) was 12 ± 3 µM and the Vmax worked out at 728 ± 97 nmol/min/mg. Regarding `O=C(O)CCCCCCCCCCCNC(=O)NC12CC3CC(CC(C3)C1)C2` [AUDA], at chicken sEH (chxEH), the 50% inhibitory concentration (IC50) came to 12 nM. In data set [3], the solubility lay within 37.5 to 50 µM (≈ 14.7 to 19.6 µg/mL).

These data come from article PMC4277729 (Bioorganic & medicinal chemistry letters, 2014).
